33 compounds from patent US8012984B2, “Substituted pyrazinone melanin concentrating hormone receptor-1 antagonists and methods” (Bristol-Myers Squibb Company, priority 2007, dated 2011) can be followed below.

The structures appear in SMILES notation.

One test addresses T1, MCHR1 (Rattus norvegicus, UniProt P97639).
T1 construct: from tissue; host or cells: whole animal: male Sprague Dawley rats
Nature of the test: Assessment of in vivo MCHR1 activity (body weight and food consumption in rats with choice of diets). On the set-up: species or system Sprague Dawley rats. As for the experimental part: Male Sprague Dawley (CD, Charles River Breeding Laboratory) rats weighing approximately 240 grams were placed in individual plastic cages with AlphaDri bedding. The room was maintained at 72° F. and 50% humidity, and a 12/12 light dark cycle with lights out at 1600 hours. The rats were conditioned for 5 days prior to the start of the study to having a choice of foods.
Baseline body weight was measured prior to drug treatment on day 0 of the study. Baseline food consumption was the average of the 3 days prior to the first drug treatment. […] All data were evaluated using ANOVA and Fishers PLSD statistics.

The target in test [1] is T2, human melanin concentrating hormone receptor (MCHR1) (Homo sapiens, UniProt Q99705, A5T/E4Q).
T2 construct: expressed in transfected cells; host or cells: HEK-293 (stably transfected), membranes
Description: Radioligand binding assay for assessment of MCHR1 activity. The settings on record: membranes of HEK-293 cells expressing mutated hMCHR1; competition with [125I]-MCH. The method, then: Compounds of Formula I were initially characterized in an in vitro binding assay to determine their Ki or ability to antagonize binding of a peptide agonist to the human melanin concentrating hormone receptor (MCHR1).
Membranes from stably transfected HEK-293 cells expressing a mutated (E4Q, AST) hMCHR1 receptor were prepared by dounce homogenization and differential centrifugation. Binding experiments were carried out with 0.5-1.0 ug of membrane protein incubated in a total of 0.2 ml in 25 mM HEPES (pH 7.4) with 10 mM MgCl2, 2 mM EGTA, and 0.1% BSA (Binding Buffer) for 90 min. For competition binding assays, reactions were carried out in the presence of with 0.06-0.1 nM [Phe^n, [^125I]Tyr^19]-MCH and increasing concentrations of unlabeled test molecules. Reactions were terminated by rapid vacuum filtration over 96 well-GFC Unifilter plates pre-coated with 0.075 ml binding buffer containing 1% BSA, and washed 3 times with 0.4 ml of Phospho-buffered Saline (pH 7.4) containing 0.01% TX-100. Filters were dried; 0.05 ml microscint 20 was added to each well and radioactivity was subsequently quantified by scintillation counting on a TopCount™ microplate scintillation counter (Packard). Inhibitory constants were determined by nonlinear least squares analysis using a four parameter logistic equation.

Where [2] appears, read: 30 mg/kg p.o. daily, day 0 through day 4, male Sprague Dawley rats.
[3] abbreviates: 45 mg/kg p.o. daily, male Sprague Dawley rats.

T2 sequence (Q99705 whole entry E4Q/A5T): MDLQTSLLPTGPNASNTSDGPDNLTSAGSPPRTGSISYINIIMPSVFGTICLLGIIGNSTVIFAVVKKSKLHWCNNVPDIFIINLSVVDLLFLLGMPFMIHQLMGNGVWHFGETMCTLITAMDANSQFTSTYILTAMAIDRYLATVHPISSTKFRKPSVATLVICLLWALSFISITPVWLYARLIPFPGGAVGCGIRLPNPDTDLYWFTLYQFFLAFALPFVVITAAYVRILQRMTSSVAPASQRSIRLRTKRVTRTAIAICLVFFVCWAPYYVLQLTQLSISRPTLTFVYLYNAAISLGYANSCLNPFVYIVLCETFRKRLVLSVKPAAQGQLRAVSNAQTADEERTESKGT
T1 sequence (P97639 whole entry): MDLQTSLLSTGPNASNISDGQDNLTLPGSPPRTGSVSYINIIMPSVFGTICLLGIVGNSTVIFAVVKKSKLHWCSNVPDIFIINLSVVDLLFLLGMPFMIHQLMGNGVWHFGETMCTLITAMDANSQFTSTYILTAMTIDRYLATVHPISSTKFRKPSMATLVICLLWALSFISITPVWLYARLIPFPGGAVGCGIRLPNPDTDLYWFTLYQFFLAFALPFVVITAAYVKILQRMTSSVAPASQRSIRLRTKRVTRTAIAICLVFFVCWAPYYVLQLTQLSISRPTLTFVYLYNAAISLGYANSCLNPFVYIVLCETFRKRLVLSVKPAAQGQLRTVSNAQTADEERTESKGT

Take `COc1cc(-n2ccnc(Sc3ccc(C(F)(F)F)cc3)c2=O)ccc1OCC(C)OC(=O)[C@@H](N)C(C)C` (stereo in doubt) [Example 202, 1-(2-Methoxy-4-(2-oxo-3-(4-(trifluoromethyl)phenylthio)pyrazin-1(2H)-yl)phenoxy)propan-2-yl 2-amino-3-methylbutanoate]: the “Weight Reduction versus Vehicle” value at MCHR1 (setting [2]) is 2.2%.

The term Ki denotes the dissociation constant of the complex between target and ligand, obtained from inhibition or displacement. The low end stands for tighter binding, the high end for weaker binding. Take `COc1ccc(-n2ccnc(SCCc3ccc(Cl)cc3)c2=O)cc1OC` [Example 3]: in test [1], affinity was put at a Ki of 576 nM. That is a sub-micromolar value.

Turning to `COc1ccc(-n2ccnc(Sc3ccc(OC(F)(F)F)cc3)c2=O)cc1OC` [Example 10], the Ki in test [1] worked out at 141 nM.

As to `COc1cc(-n2ccnc(SCCCc3ccccc3)c2=O)ccc1OC[C@@H](C)O` [Example 19], the Ki in test [1] amounted to 3130 nM.

Compound `COc1cc(-n2ccnc(SCCc3ccccn3)c2=O)ccc1OCC(C)(C)O` [Example 27, 1-(4-(2-Hydroxy-2-methylpropoxy)-3-methoxyphenyl)-3-(2-(pyridin-2-yl)-ethylthio)pyrazin-2(1H)-one] displayed an inhibition constant Ki in test [1] of 63 nM. Besides, the “Weight Reduction versus Vehicle” value at MCHR1 (setting [3]) is recorded as 4.1%.

For `COc1cc(-n2ccnc(SCCc3ccncc3)c2=O)ccc1OCC(C)(C)O` [Example 28], the Ki in test [1] amounted to 3150 nM.

In turn, `COc1cc(-n2ccnc(Sc3ccc(C(F)(F)F)cc3)c2=O)ccc1OCC(C)(C)O` [Example 36] had a Ki in test [1] of 33 nM. Compared with the last compound, the Ki is about 95-fold lower.

In test [1], `COc1cc(-n2ccnc(Sc3ccc(OC(F)(F)F)cc3)c2=O)ccc1OCC(C)(C)O` [Example 38] registered an inhibitory constant (Ki) of 20 nM.

In test [1], `COc1cccc(Sc2nccn(-c3ccc(OCC(C)(C)O)c(OC)c3)c2=O)c1` [Example 39] had a Ki of 1580 nM.

Compound `COc1cc(-n2ccnc(Sc3ccccc3C(F)(F)F)c2=O)ccc1OCC(C)(C)O` [Example 40] yielded a Ki in test [1] of 3220 nM.

In the case of `COc1cc(-n2ccnc(SC(C)Cc3ccccc3)c2=O)ccc1OCC(C)(C)O` (stereo not shown) [Example 46], in test [1], the affinity corresponds to a Ki of 232 nM.

Regarding `COc1cc(-n2ccnc(Sc3ccccc3)c2=O)ccc1OCC(C)(C)O` [Example 49], the affinity in test [1] corresponds to a Ki of 3040 nM. This Ki lies about 13-fold higher than the previous one.

In test [1], `COc1cc(-n2ccnc(SCc3ccccc3)c2=O)ccc1OCC(C)(C)O` [Example 50] had an inhibition constant (Ki) of 4660 nM.

In turn, `COc1cc(-n2ccnc(Sc3nc4ccc(Cl)cc4s3)c2=O)ccc1OCC(C)(C)O` [Example 59] registered a Ki in test [1] of 125 nM. This Ki is about 37-fold lower than that of the compound before.

Take `CCc1cc(-n2ccnc(SCCc3ccccc3)c2=O)ccc1OCC(C)(C)O` [Example 65]: in test [1], the Ki was 10 nM.

On to `COc1cc(-n2ccnc(Sc3ccc(OC(F)(F)F)cc3)c2=O)ccc1OCC(O)C1CC1` (stereo not shown) [Example 67], for which, in test [1], the inhibition constant Ki turned out to be 28 nM. This Ki is about 2.8-fold higher than that of the compound before.

For the compound `COc1cc(-n2ccnc(Sc3ccc(C(F)(F)F)cc3)c2=O)ccc1O[C@H]1COC[C@H]1O` [Example 69], affinity in test [1] was put at a Ki of 49 nM. Compared with the last compound, the Ki is about 1.8-fold higher.

In test [1], `COc1cc(-n2ccnc(Sc3ccc(C(F)(F)F)cc3)c2=O)ccc1OCC(C)O` (stereo not shown) [Example 71] came in with a Ki of 62 nM.

For `Cc1cc(-n2ccnc(Sc3ccc(C(F)(F)F)cn3)c2=O)ccc1OCC(C)(C)O` [Example 95, 1-(4-(2-Hydroxy-2-methylpropoxy)-3-methylphenyl)-3-(5-(trifluoromethyl)pyridin-2-ylthio)pyrazin-2(1H)-one], in test [1], the affinity, expressed as Ki, was 41 nM.

In test [1], `Cc1cc(-n2ccnc(SCCc3ccccn3)c2=O)ccc1OCC(C)(C)O` [Example 110, 1-(4-(2-Hydroxy-2-methylpropoxy)-3-methylphenyl)-3-(2-(pyridin-2-yl)ethylthio)pyrazin-2(1H)-one] returned a Ki of 17 nM.

Regarding `Cc1cc(-n2ccnc(SCCc3ccccc3)c2=O)ccc1OCC(C)(C)O` [Example 113, 1-(4-(2-Hydroxy-2-methylpropoxy)-3-methylphenyl)-3-(phenethylthio)pyrazin-2(1H)-one], affinity in test [1] was put at a Ki of 8 nM. The “Weight Reduction versus Vehicle” value at MCHR1 (setting [3]) came out at 4.2%.

With `Cc1cc(-n2ccnc(SCCc3ccc(F)cc3)c2=O)ccc1OCC(C)(C)O` [Example 124], in test [1], the Ki is 9 nM.

For `CCc1cc(-n2ccnc(SCCc3ccc(F)cc3)c2=O)ccc1OCC(C)(C)O` [Example 125], the Ki in test [1] was found to be 17 nM.

In the case of `COc1cc(-n2ccnc(SCCc3cccc(F)c3)c2=O)ccc1OCC(C)(C)O` [Example 131], the Ki in test [1] turned out to be 18 nM. The Ki values of the last two compounds are within 1.5-fold of each other.

Take `CC(C)(O)COc1ccc(-n2ccnc(OCCc3ccc(F)cc3)c2=O)cc1Cl` [Example 141]: the inhibitory constant (Ki) in test [1] is 78 nM.

Compound `CCc1cc(-n2ccnc(OCCc3ccc(Cl)cc3)c2=O)ccc1OCC(C)(C)O` [Example 151] came in with a Ki in test [1] of 64 nM.

On to `Cc1cc(-n2ccnc(OCCc3cccc(Cl)c3)c2=O)ccc1OCC(C)(C)O` [Example 155], for which, in test [1], the inhibition constant (Ki) worked out at 45 nM.

`CC(C)(O)COc1ccc(-n2ccnc(Sc3ccc(C(F)(F)F)cc3)c2=O)cn1` [Example 157] had a Ki in test [1] of 1730 nM.

Regarding `CC(C)(O)COc1ncc(-n2ccnc(SCCc3ccccn3)c2=O)cc1Cl` [Example 169], in test [1], affinity was put at a Ki of 1290 nM. The Ki values of the last two compounds are within 1.5-fold of each other.

For the compound `Cc1cc(-n2ccnc(Sc3ccc(C(F)(F)F)cc3)c2=O)cnc1OCC(C)(C)O` [Example 170], the affinity in test [1] corresponds to a Ki of 132 nM. This Ki lies about 9.8-fold lower than the previous one.

`Cc1cc(-n2ccnc(SCCc3ccccc3)c2=O)cnc1OCC(C)(C)O` [Example 172]: affinity in test [1] was put at a Ki of 85 nM.

Take `Cc1cc(=O)n(CC(C)(C)O)c2ccc(-n3ccnc(Sc4ccc(OC(F)(F)F)cc4)c3=O)cc12` [Example 178]: the Ki in test [1] was 290 nM.

As for `COc1cc(-n2ccnc(Sc3ccc(C(F)(F)F)cc3)c2=O)ccc1OCC(C)(C)OC(=O)CN` [Example 193, 1-(2-Methoxy-4-(2-oxo-3-(4-(trifluoromethyl)phenylthio)pyrazin-1(2H)-yl)phenoxy)-2-methylpropan-2-yl 2-aminoacetate], the “Weight Reduction versus Vehicle” value at MCHR1 (3 mg/kg p.o. daily, day 0 through day 4, male Sprague Dawley rats) turned out to be 0.7%; at MCHR1 (10 mg/kg p.o. daily, day 0 through day 4, male Sprague Dawley rats), 2.1%; at MCHR1 (setting [2]), 3.4%.
